For data set [1], the system named is green peach aphid (Myzus persicae). The data set can be described thus: Myzus test (MYZUPE spray treatment), Use Example 4. The class given is in vivo. As to conditions: 144 h, 100 g/ha, after 6 days, read-out: activity in %. Summed up: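 Compound was formulated in acetone/dimethylformamide with alkylaryl polyglycol ether emulsifier and diluted in emulsifier-containing water. It was sprayed onto Chinese cabbage leaf discs infested with all stages of Myzus persicae. Mortality (%) was scored after 6 days, where 100% means all aphids killed.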

A short description of data set [2]: log P determination by HPLC on reversed-phase columns (EEC Directive 79/831 Annex V.A8). The data set is classed as physicochemical. As to conditions: pH 2.7. The method, boiled down: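 log P from reversed-phase LC-MS retention at pH 2.7, 0.1% formic acid water/acetonitrile gradient 10–95% acetonitrile. Calibrated against C3–C16 unbranched alkan-2-ones, interpolating linearly between adjacent alkanones.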

Data set [3] concerns Lucilia cuprina larvae. The data set can be described thus: Lucilia cuprina test (LUCICU). The data set is classed as in vivo. To be noted: 48 h, read-out: kill in %. The protocol: (§1) Solvent: dimethyl sulphoxide
An appropriate preparation of active compound is prepared by mixing 10 mg of active compound with 0.5 ml of dimethyl sulphoxide and diluting the concentrate with water to the desired concentration.
Vessels containing horse meat treated with the preparation of active compound at the desired concentration are populated with approximately 20 Lucilia cuprina larvae.
After 2 days, the kill in % is ascertained. Here, 100% means that all of the larvae have been killed; 0% means that no larvae have been killed.

For data set [4], the system named is larvae of the mustard beetle (Phaedon cochleariae). Briefly: Phaedon test (PHAECO spray treatment). The data set is classed as in vivo. As to conditions: 168 h, 100 g/ha, after 7 days, read-out: activity in %. Summed up: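 Compound dissolved in acetone/dimethylformamide with alkylaryl polyglycol ether emulsifier, then diluted with emulsifier-containing water to test concentration for spray treatment of Phaedon cochleariae larvae. Activity scored after 7 days as % larvae killed (100% = all dead, 0% = none).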

Data set [5] concerns caterpillars of the armyworm (Spodoptera frugiperda). The data set can be described thus: Spodoptera frugiperda test (SPODFR spray treatment). The class given is in vivo. As to conditions: 168 h, 100 g/ha, after 7 days, read-out: activity in %. Summed up: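 Maize leaf discs sprayed with compound diluted in emulsifier-containing water (acetone/DMF solvent, alkylaryl polyglycol ether emulsifier), dried, then infested with armyworm caterpillars. Kill scored after 7 days as % mortality, 100% = all caterpillars dead, 0% = none.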

The subject of data set [6] is Boophilus microplus. Briefly: Boophilus microplus test (BOOPMI injection). The class given is in vivo. To be noted: Rhipicephalus microplus, 168 h, 20 μg/animal, after 7 days, read-out: activity in % (no fertile eggs laid). As for the experimental part: as §1
An appropriate preparation of active compound is prepared by mixing 10 mg of active compound with 0.5 ml of solvent and diluting the concentrate with solvent to the desired concentration. The solution of active compound is injected into the abdomen (Boophilus microplus), and the animals are transferred to dishes and kept in a climatized room. Activity is assessed by deposition of fertile eggs.
After 7 days, the activity in % is assessed. Here, 100% means that none of the ticks has laid fertile eggs.

In data set [7] the test system is adult Musca domestica. Briefly: Musca domestica test (MUSCDO). The data set is classed as in vivo. As to conditions: 48 h, read-out: kill in %. As for the experimental part:
as §1
An appropriate preparation of active compound is prepared by mixing 10 mg of active compound with 0.5 ml of dimethyl sulphoxide and diluting the concentrate with water to the desired concentration. Vessels containing a sponge treated with the preparation of active compound at the desired concentration are populated with adult Musca domestica.
After 2 days, the kill in % is ascertained. Here, 100% means that all of the flies have been killed; 0% means that no flies have been killed.

Setting [8] is: reversed-phase C18 HPLC column, HPLC on reversed-phase columns (C 18), EEC Directive 79/831 Annex V.A8, read-out: logP.

Read-outs that look alike come from different tables or passages of the source.

With `Cc1cc(C#N)cc(C(=O)NC(C)(C)C)c1NC(=O)c1cc(Cn2cc(C(F)(F)F)nn2)nn1-c1ncccc1Br` [Example 7], the pest or weed control at 100 g/ha in data set [1], in data set [4] and in data set [5] was 100% in each case. Moreover, the chromatographic logP in data set [2] (setting [8]) was 3.44. Moreover, in data set [3] (100 ppm, after 2 days), the pest or weed control at 100 ppm came out at 100%. Moreover, in data set [6], the pest or weed control at 0.02 mg came to 100%.

`CNC(=O)c1cc(Cl)cc(C)c1NC(=O)c1cc(Cn2nnc3cc(C(F)(F)F)ccc32)nn1-c1ncccc1Cl` [Example 70]: the pest or weed control at 100 g/ha in data set [1], in data set [4] and in data set [5] was 100% each time. Also, in data set [2], the chromatographic logP was 3.13. Further, the pest or weed control at 100 ppm in data set [3] was 100%. The pest or weed control at 0.02 mg in data set [6] stood at 100%.

Consider `CNC(=O)c1cc(C#N)cc(C)c1NC(=O)c1cc(Cn2ncc(C(F)(F)F)n2)nn1-c1ncccc1Cl` [Example 124], for which the pest or weed control at 100 g/ha in data set [1], in data set [4] and in data set [5] was 100% throughout. This compound also yielded a chromatographic logP in data set [2] of 2.68. In addition, the pest or weed control at 100 ppm in data set [3] amounted to 100%; in data set [7], 80%. Further, the pest or weed control at 0.02 mg in data set [6] is 100%.

For `Cc1cc(C#N)cc(C(=O)NC(C)C)c1NC(=O)c1cc(Cn2ncc(C(F)(F)F)n2)nn1-c1ncccc1Cl` [Example 128], the pest or weed control at 100 g/ha in data set [1], in data set [4] and in data set [5] was 100% in each case. For the same compound, the chromatographic logP in data set [2] is 3.1. For the same compound, the pest or weed control at 100 ppm in data set [3] came to 100%; in data set [7] it was 80%. The pest or weed control at 0.02 mg in data set [6] came out at 100%.

Regarding `Cc1cc(C#N)cc(C(=O)NC(C)(C)C)c1NC(=O)c1cc(Cn2ncc(C(F)(F)F)n2)nn1-c1ncccc1Cl` [Example 129], the pest or weed control at 100 g/ha in data set [1], in data set [4] and in data set [5] was 100% throughout. For the same compound, the chromatographic logP in data set [2] was 3.46. For the same compound, the pest or weed control at 100 ppm in data set [3] amounted to 100%; in data set [7], 80%. Moreover, the pest or weed control at 0.02 mg in data set [6] turned out to be 100%.

Take `Cc1cc(Cl)cc(C(N)=O)c1NC(=O)c1cc(Cn2ncc(C(F)(F)F)n2)nn1-c1ncccc1Cl` [Example 134]: the pest or weed control at 100 g/ha in data set [1], in data set [4] and in data set [5] was 100% throughout. This compound came in with a chromatographic logP in data set [2] of 2.7. Further, the pest or weed control at 100 ppm in data set [3] and in data set [7] was 100% each time. Besides, the pest or weed control at 0.02 mg in data set [6] was determined as 100%.

Take `CNC(=O)c1cc(Cl)cc(C)c1NC(=O)c1cc(Cn2ncc(C(F)(F)F)n2)nn1-c1ncccc1Cl` [Example 135]: the pest or weed control at 100 g/ha stood at 90% in data set [1], 100% in data set [4] and 100% in data set [5]. The same compound registered a chromatographic logP in data set [2] of 2.99. The pest or weed control at 100 ppm in data set [3] amounted to 100%. For the same compound, in data set [6], the pest or weed control at 0.02 mg amounted to 100%.

In data set [2], `Cc1cc(Cl)cc(C(=O)NC(C)C2CC2)c1NC(=O)c1cc(Cn2ncc(C(F)(F)F)n2)nn1-c1ncccc1Cl` (stereo not shown) [Example 136] displayed a chromatographic logP of 3.8. The pest or weed control at 100 ppm in data set [3] came to 100%. The pest or weed control at 100 g/ha in data set [4] and in data set [5] was 100% throughout. The pest or weed control at 0.02 mg in data set [6] was determined as 100%.

Take `CC(NC(=O)c1cc(Cl)cc(Cl)c1NC(=O)c1cc(Cn2ncc(C(F)(F)F)n2)nn1-c1ncccc1Cl)C1CC1` (stereo not shown) [Example 147]: the chromatographic logP in data set [2] was 3.73. For the same compound, the pest or weed control at 100 ppm in data set [3] came out at 100%. Moreover, the pest or weed control at 100 g/ha in data set [4] and in data set [5] was 100% throughout. For the same compound, in data set [6], the pest or weed control at 0.02 mg worked out at 100%.

In the case of `CC(C)(C)NC(=O)c1cc(Cl)cc(Cl)c1NC(=O)c1cc(Cn2ncc(C(F)(F)F)n2)nn1-c1ncccc1Cl` [Example 151], the pest or weed control at 100 g/ha in data set [1], in data set [4] and in data set [5] was 100% in each case. Further, the chromatographic logP in data set [2] worked out at 3.8. Further, the pest or weed control at 100 ppm in data set [3] was determined as 100%. In addition, the pest or weed control at 0.02 mg in data set [6] was 100%.

For `CSC[C@H](C)NC(=O)c1cc(Cl)cc(Cl)c1NC(=O)c1cc(Cn2ncc(C(F)(F)F)n2)nn1-c1ncccc1Cl` [Example 155], the pest or weed control at 100 g/ha in data set [1], in data set [4] and in data set [5] was 100% each time. The compound also gave a chromatographic logP in data set [2] of 3.64. Moreover, the pest or weed control at 100 ppm in data set [3] was 100%. Besides, in data set [6], the pest or weed control at 0.02 mg is 100%.

For the compound `Cc1cc(I)cc(C(=O)NC(C)(C)C)c1NC(=O)c1cc(Cn2ncc(C(F)(F)F)n2)nn1-c1ncccc1Cl` [Example 162], in data set [2], the chromatographic logP was 4.11. Also, in data set [3], the pest or weed control at 100 ppm is 100%. Also, the pest or weed control at 100 g/ha in data set [4] and in data set [5] was 100% in each case. The pest or weed control at 0.02 mg in data set [6] came to 100%.

For `CNC(=O)c1cc(Br)cc(C)c1NC(=O)c1cc(Cn2ncc(C(F)(F)F)n2)nn1-c1ncccc1Cl` [Example 172], the pest or weed control at 100 g/ha in data set [1], in data set [4] and in data set [5] was 100% in each case. This compound also came in with a chromatographic logP in data set [2] of 3.1. In addition, the pest or weed control at 100 ppm is 100% in data set [3] and 80% in data set [7]. In addition, the pest or weed control at 0.02 mg in data set [6] was 100%.

On to `Cc1cc(Br)cc(C(=O)NC2CC2)c1NC(=O)c1cc(Cn2ncc(C(F)(F)F)n2)nn1-c1ncccc1Cl` [Example 174], for which the pest or weed control at 100 g/ha in data set [1], in data set [4] and in data set [5] was 100% throughout. In addition, the chromatographic logP in data set [2] turned out to be 3.28. Moreover, in data set [3], the pest or weed control at 100 ppm was determined as 100%. Moreover, in data set [6], the pest or weed control at 0.02 mg stood at 100%.

For the compound `Cc1cc(Br)cc(C(=O)NC(C)C)c1NC(=O)c1cc(Cn2ncc(C(F)(F)F)n2)nn1-c1ncccc1Cl` [Example 175], the chromatographic logP in data set [2] is 3.55. The pest or weed control at 100 ppm in data set [3] was 100%. The pest or weed control at 100 g/ha in data set [4] and in data set [5] was 100% in each case. In addition, the pest or weed control at 0.02 mg in data set [6] was determined as 100%.

Turning to `Cc1cc(C#N)cc(C(=O)NC(C)C2CC2)c1NC(=O)c1cc(Cn2cc(C(F)(C(F)(F)F)C(F)(F)F)nn2)nn1-c1ncccc1Cl` (stereo not shown) [Example 218], in data set [2] (setting [8]), the chromatographic logP was determined as 3.73. For the same compound, the pest or weed control at 100 ppm in data set [3] (100 ppm, after 2 days) was 100%; in data set [7] (100 ppm, after 2 days), 85%. The pest or weed control at 100 g/ha in data set [4] and in data set [5] was 100% in each case. In data set [6], the pest or weed control at 0.02 mg stood at 100%.

In data set [2], `NC(=O)c1cc(Cl)cc(Cl)c1NC(=O)c1cc(Cn2cc(C(F)(C(F)(F)F)C(F)(F)F)nn2)nn1-c1ncccc1Cl` [Example 247] displayed a chromatographic logP of 3.13. In addition, the pest or weed control at 100 ppm in data set [3] and in data set [7] was 100% each time. The pest or weed control at 100 g/ha in data set [4] and in data set [5] was 100% throughout. Besides, in data set [6], the pest or weed control at 0.02 mg is 100%.

Values taken from patent US8536202B2, “Triazole-substituted anthranilamides as pesticides” (Bayer Cropscience AG, priority 2010, dated 2013).
